We go through three molecules from patent EP0719267B1, “SECOND MESSENGER CELL SIGNALING INHIBITORS” (CELL THERAPEUTICS, INC., priority 1993, dated 1994).

The test system of data set [1] is vascular cell adhesion molecule (VCAM). The experiment in a line: VCAM expression on TNF-stimulated HUVEC (flow cytometry). It is filed as cell-based, human. An excerpt:
This example illustrates an investigation of inhibition of vascular cell adhesion molecule (VCAM) expression on HUVEC by compound no. 58. VCAM expression by endothelial cells is an early event in the pathogenesis of atherogenesis and multiple sclerosis, among other various autoimmune diseases. Figure 23 is a series of frequency histograms obtained in this exemplary assay. […] In the absence of TNF, VCAM expression on HUVEC was at a very low level. […] The average increase in cell fluorescence was approximately 10-fold. The bottom panel is a frequency histogram of TNF-stimulated cells in the presence of compound no 58. […] 58.
Assay results reported in figures 63A and 63B, illustrate that inventive compound no. […] HUVEC were stimulated with TNFα (20 ng/ml) for 5 hours and stained using fluorescent antibodies to ICAM-1 or VCAM-1. Cell surface expression was analyzed by flow cytometry. All values were normalized to the peak mean fluorescence of the positive control (=100%). Average levels of induction using TNFα- stimulation were 20-fold higher for ICAM-1 and over 50-fold higher for VCAM-1 from that of nonstimulated controls, as shown in figures 63 and 63B.
Figures 73A and 73B illustrate inhibition by inventive compound no. 58 of VCAM or ICAM expression, respectively, in HUVEC activated by TNF. Cells were stimulated for 8 hours in the presence or absence of inventive compounds and stained with fluorescent antibodies to VCAM or ICAM and analyzed by flow cytometry.
Background: Flow cytometry measures light scatter and fluorescence of single cells or particles in a stream.

Another data set concerns murine splenocytes. Put plainly: Anti-CD3 stimulated splenocyte proliferation. The class given is cell-based. To be noted: Mus musculus. The procedure:
In the assay, murine splenocytes were activated with a monoclonal antibody directed against CD3 (1 µg/ml), resulting in an IL-2 mediated proliferative response.
45 (1 µM). […] The supernatants were harvested and assayed for cytokine levels using commercial ELISAs for proliferation.

Data set [2] has as its system murine cytotoxic T-cell line, CT6. The experiment in a line: Cytokine-induced proliferation of the cytotoxic T-cell line CT6 / CT-6.1. It is filed as cell-based. As to conditions: for pIC50: Mus musculus, T-cell, CT-6.1 cells; for inhibition of direct IL-2-induced proliferation: added one hour prior to IL-2, thymidine at 48 hours. Summed up: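 IL-2-dependent murine CT6/CT-6.1 cells deprived of IL-2 (24 h or overnight), then stimulated with IL-2 (15 U/ml or 20 ng/ml), IL-4 (50 ng/ml) or IL-7 (25 ng/ml) with compound at various concentrations. Proliferation by ³H-TdR incorporation (4 h pulse from 20 h, or at 48 h); viable counts up to 8 days with 2 µM compound.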

The next data set deals with Lewis Lung Carcinoma. The experiment in a line: Lewis Lung Carcinoma (3LL) in vivo experiment. More on the design: species or system BDFI mice. The procedure:
Figure 43 reports results in an in vivo experiment showing that inventive compound no. […] BDFI mice were injected subcutaneously with 1 x 10^6 3LL cells on day 0 and then treated with inventive compound no. (20 mg/kg i.p.), cyclophosphamide (20 mg/kg) or vehicle on alternate days beginning on day 7. The animals were sacrificed on day 20 and the lung tumors dissected and weighed. Figure 43 illustrates that compound no. […] Figure 44A and 44B illustrates platelet and neutrophil counts, respectively, of the sacrificed mice in the immediately preceding assay. […] 50.

The test system of data set [3] is human aortic smooth muscle cells (aortic SMC). Put plainly: Growth factor-induced proliferation of aortic smooth muscle cells. To be noted: 5 µM. The class given is cell-based. The method, then: 58. One assay was used for investigating effects on PDGF-induced proliferation of human aortic smooth muscle cells (aortic SMC). Cells, purchased from a commercial supplier (Cell Systems, Inc., Seattle, WA), were cultured with various concentrations of PDGF-BB with and without addition of compound no. 58 (5 µM). […] 58 inhibited PDGF-induced proliferation even at high PDGF concentrations providing maximum proliferative stimulation. In addition, some cultures were treated 1 hour prior to PDGF stimulation with inventive compound no. 58. As shown, PDGF stimulated proliferation in this cell line. Addition of 5 µM of compound no. […] 58 were observed.
Another assay was used for investigating inhibitory effects of inventive compound no. 58 on either basic or acidic FGF-induced proliferation in human aortic smooth muscle cells (aortic SMC). Disregulated bFGF- or aFGF-induced proliferation is linked to SMC proliferation and neointimal occlusion in atherogenesis and restenosis and plays a role in autocrine and paracrine stimulation of tumor cells and tumor cell-induced angiogenesis. In this assay, cells were grown in reduced serum (0.5% fetal calf serum) for 24 hours prior to stimulating with various concentrations of […]. Cells were stimulated with various concentrations overnight of either aFGF or bFGF, adding 5µM of compound no. 58 in selected cultures. Compound no. […] Results shown in figure 20A (aFGF) and figure 20B (bFGF) illustrate the degree of inhibition.
Figures 65A-65F illustrate inhibition of proliferation in either human aortic or pulmonary smooth muscle cells (SMC) by inventive compound no. 58. Procedurally, cells were cultured in 0.5% serum containing medium 24 hours prior to stimulation with various concentrations of either PDGF (figs. 65A and 65B), acidic FGF (figs. 65C and 65D) or basic FGF (figs. 65E and 65F). Cells were stimulated for 24 hours prior to labeling with ^3H-TdR for 4 hours and harvested and counted by scintillation. Compound no. 58 was added 1 hour prior to stimulation at a concentration of 5 µM. Even at points of maximum stimulation of the growth factors, compound no. […] In addition cell number was assessed and those treated with compound no.

The test system of data set [4] is human smooth muscle cells (SMC). Put plainly: Chemotaxis of smooth muscle cells to PDGF (Boyden chamber). The class given is cell-based. To be noted: eight hours. The procedure: Figure 71 illustrates that inventive compound no. […] In the assay, cells were seeded in a Boyden chamber with or without various concentrations of inventive compound no. 58. Eight hours later, the number of cells that had migrated were scored visually. Inventive compound no.

Setting [5] is: 20 mg/kg i.p. alternate days from day 7, day 20.

pIC50: −log10 of the molar value. Where two headings read alike, the source gives them in different places.

In the case of `CCCCCCCCNCC(O)CCCCCCCCCn1c(=O)c2c(ncn2C)n(C)c1=O` (stereo not shown) [compound no. 45], in data set [1] (TNFα (20 ng/ml), 5 hours), the “VCAM-1 cell surface expression” value is on record as “inhibited adhesion receptor expression on HUVEC”. Besides, the pIC50 was roughly 6.07 with murine splenocytes (anti-CD3 (1 µg/ml), read-out: IC50); roughly 6.00 in the data set with murine splenocytes (read-out: concentration approximately equal to IC50 value); roughly 6.10 in data set [2] (IL-2 (20 ng/ml), fig. 46); greater than 6.00 in data set [2] (IL-2 (20 ng/ml), fig. 48); greater than 6.00 in data set [2] (IL-4 (50 ng/ml)); greater than 6.00 in data set [2] (IL-7 (25 ng/ml)). Moreover, the “proliferation measured by cell number” value in data set [2] (CT6.1 cells, IL-2, 2 µM, up to 8 days) is recorded as “inhibits proliferation as measured by cell number”. Further, the “reversibility of the effect” value in data set [2] (CT6.1 cells, washed on day 4) is listed as “reversible even after 4 days in culture”. The “inhibition of direct IL-2-induced proliferation” value in data set [2] is given as “inhibited direct IL-2-induced CT6 proliferation”.
In the case of `CCCCCCCCCCCCNCC(O)CCCCCCCCCn1c(=O)c2c(ncn2C)n(C)c1=O` (stereo not shown) [compound no. 50, 1-(11-Dodecylamino-10-hydroxyundecyl)-3,7-dmethylxanthine], in the data set with Lewis Lung Carcinoma (setting [5]), the “lung tumor weight compared with cyclophosphamide (20 mg/kg)” value is “superior results over an existing cancer chemotherapeutic agent” and the tumor growth entry is “can arrest growth of Lewis Lung Carcinoma in mice”. The “platelet and neutrophil counts” value with Lewis Lung Carcinoma (20 mg/kg i.p., sacrificed mice) is “not altered from vehicle”. In data set [2], the “inhibition of direct IL-2-induced proliferation” value is recorded as “inhibited direct IL-2-induced CT6 proliferation”.
For the molecule `COc1cc(CNCC(O)CCCCCCCCCn2c(=O)c3c(ncn3C)n(C)c2=O)cc(OC)c1OC` (stereo not shown) [compound no. 58, 1-[11-(3,4,5-Trimethoxybenzylamino)-10-hydroxyundecyl]-3,7-dimethylxanthine], the “factor of reduction of mean fluorescence (VCAM expression)” value in data set [1] (TNF 6 hours, versus TNF-stimulated cells without compound) is 8. Besides, in data set [1] (TNF, 8 hours), the VCAM expression entry is reported as “inhibition”. For the same molecule, in data set [3], the “inhibition of PDGF-induced proliferation” value is reported as “blocked PDGF-stimulated proliferation”; the “inhibition of aFGF- and bFGF-induced proliferation” value was “a potent inhibitor of both aFGF- and bFGF-induced proliferation”; the toxic effects result is recorded as “No toxic effects”. Further, the “inhibition of proliferation at maximum stimulation by PDGF, acidic FGF or basic FGF” value in data set [3] (added 1 hour prior) is “completely inhibited cellular proliferation in both aortic and pulmonary SMC”. Further, the “cell number following growth factor stimulation” value in data set [3] (aortic and pulmonary SMC) is “showed no increase in cell number following growth factor stimulation”. For the same molecule, the PDGF-directed chemotaxis result in data set [4] is recorded as “had no effect on PDGF-directed SMC chemotaxis”.
